The values that follow come from article PMC9144936, “New Cu^+2 Complexes with N-Sulfonamide Ligands: Potential Antitumor, Antibacterial, and Antioxidant Agents” (Molecules, 2022).

What is called IC50 is the concentration needed to halve the response being measured. As usually defined, the zone of inhibition is the extent of the growth-free halo in a diffusion test.

Data set [1] concerns human cervical carcinoma line (HeLa). Description: MTT cytotoxicity assay, HeLa. In kind it is cell-based. The following applies: HeLa cells. As to the method: (§1) Three cell lines were used to determine the cytotoxicity of the complexes, a human cervical carcinoma line (HeLa), a human radical growth phase melanoma cell line (WM35), and a normal fibroblastic epithelial cell line (HFL1) using the MTT method. The cells were exposed to C1 and C2 complexes in different concentrations (50, 25, 12.5, 2, and 0.2 µM) at 24, 48, and 72 h. As positive contro, cisplatin was used.
(§2) To determine the cytotoxicity of the copper complexes, three cell lines were used: a human cervical carcinoma line (HeLa), a human radical growth phase melanoma cell line (WM35), and a normal fibroblastic epithelial cell line (HFL1). The cell lines were obtained from ATCC (American Type Cell Collection, Manassas, VA 20110-2209, USA) and were maintained in DMEM (Sigma-Aldrich, Saint Louis, Missouri, USA) supplemented with 10% fetal bovine serum (Hyclone), 1 mM glutamine (Sigma-Aldrich), and 1% antibiotic antimycotic 100× (Sigma-Aldrich). The cells were cultured at 37 °C in an atmosphere of 5% CO2 and 95% relative humidity.
(§3) The cytotoxicity assays were performed using the MTT assay (3-(4,5-dimethylthiazol-2-yl)-2,5-diphenyl tetrazolium bromide-Sigma Aldrich). Cells were plated at a density of 1 × 10^5 cells/well in 96-well plates for 24 h in normal propagation media. The cultures were then exposed to C1 and C2 complexes in different concentrations (50, 25, 12.5, 2, and 0.2 µM). The complexes were first solubilized in DMSO (Sigma) and then serial dilutions in media were performed until the final concentration of DMSO was less than 1%. As a positive control, cisplatin (Ebewe Pharma Ges.m.b.H. Nfg. KG, Austria) was used, in the same concentrations as the complexes. As a negative control, cell lines cultivated in normal expansion medium with the same amount of DMSO added were used. The cellular viability was determined using the MTT assay at 24, 48, and 72 h, respectively. Formazan particles were solubilized with DMSO and absorbances were determined at 550 nm using a microplate reader (Bio-Rad, Hercules, CA, USA). The cytotoxic activity, expressed as IC50 values representing the complex solution required to inhibit 50% of the cell proliferation, were calculated from the calibration curve by nonlinear regression. Each experiment was carried out in triplicate.
A general note: Formazan colour is commonly taken as a measure of viable cells.

Data set [2] relates to normal fibroblastic epithelial cell line (HFL1). Description: MTT cytotoxicity assay, HFL1. Format: cell-based. The following applies: HFL1 cells. As to the method: as §1, §2, §3
In data set [3] the test system is human radical growth phase melanoma cell line (WM35). The experiment in a line: MTT cytotoxicity assay, WM35. Format: cell-based. The following applies: WM35 cells, MTT. As to the method:
as §1, §2, §3

Another data set relates to HeLa, WM35, HFL1 cells. Format: cell-based. How it is done:
as §1
This means that the cyytotoxicity is given by the complexes and that the chelation of the ligands with the copper ion is essential for the cytotoxicity of the complexes.
The cytotoxicity assays were performed using the MTT assay (3-(4,5-dimethylthiazol-2-yl)-2,5-diphenyl tetrazolium bromide-Sigma Aldrich). Cells were plated at a density of 1 × 10^5 cells/well in 96-well plates for 24 h in normal propagation media. The cultures were then exposed to C1 and C2 complexes in different concentrations (50, 25, 12.5, 2, and 0.2 µM). The complexes were first solubilized in DMSO (Sigma) and then serial dilutions in media were performed until the final concentration of DMSO was less than 1%. […] The cellular viability was determined using the MTT assay at 24, 48, and 72 h, respectively. Formazan particles were solubilized with DMSO and absorbances were determined at 550 nm using a microplate reader (Bio-Rad, Hercules, CA, USA). […]

Data set [4] concerns Escherichia coli ATCC 10536. The experiment in a line: Disk diffusion method, E. coli. Format: cell-based. The settings on record: Escherichia coli, ATCC10536; complexes 5 µL of 1 mg/mL; 25 µg Amoxicillin, 5 µg Norfloxacin; 24 h, 37 °C; read-out: Halo Zone Test (diameter of the inhibition zone). An excerpt: (§4) The disk diffusion method was used to determine the antibacterial activity of the C1 and C2 copper complexes on four reference microbial strains, two Gram-positive (Staphylococcus aureus and Bacillus cerreus) and two Gram-negative (Escherichia coli and Pseudomonas aeruginosa) strains. The disk diffusion method was used to determine the antibacterial activity of the C1 and C2 copper complexes. The method was adapted for the purposes of the current study, according to the standards developed by the Clinical and Laboratory Standards Institute. Four reference microbial strains, two Gram-positive (Staphylococcus aureus ATCC […] and Bacillus cerreus ATCC 14579) and two Gram-negative (Escherichia coli ATCC 10536 and Pseudomonas aeruginosa ATCC 27853) strains, were used for in vitro susceptibility testing. These reference microbial strains were obtained from the American Type Culture Collection (ATCC, Manassas, VA, USA). As positive controls, Amoxicillin (Oxoid Ltd., Basingstoke, UK) and Norfloxacin (Sigma-Aldrich) were used. For each of the four species, an initial suspension of bacterial cultures was inoculated on nutrient agar plates (Merck KGaA, Darmstadt, Germany), incubated for 24 h at 37 ± 2 °C and resuspended in a physiological saline buffer to a […] concentration (on a 0.5 McFarland scale), and further inoculated on Muëller Hinton agar plates (Merck KGaA, Darmstadt, Germany). […] After inoculation, the medium surface was dried and 8 wells were radially drilled 1.5 cm from the outer edge, 3 cm apart. From aliquot samples of 1 mg/mL of each copper complex dissolved in DMSO and incorporated in sterile liquid medium, 5 μL was placed in each of the 8 wells and left for 30 min to diffuse into the agar plates. The plates were then incubated for 24 h at 37 ± 2 °C. Then, 25 μg Amoxicillin and 5 μg Norfloxacin served as a positive controls, while DMSO 0.75% was used as a negative control. Readings were conducted by measuring the diameter of the inhibition zone (Halo Zone Test, in mm). The germ sensitivity of the copper complexes was estimated by comparing the diameter of the inhibition area to that generated by the regular antibiotics with known inhibition values. […] All tests were triplicated, and the measured diameters of the inhibition zone were expressed (in mm) as mean ± standard deviation.

For data set [5], the system named is Staphylococcus aureus ATCC 6538P. The experiment in a line: Disk diffusion method, S. aureus. In kind it is cell-based. The settings on record: Staphylococcus aureus, ATCC6538P; complexes 5 µL of 1 mg/mL; 25 µg Amoxicillin, 5 µg Norfloxacin; 24 h, 37 °C; read-out: Halo Zone Test (diameter of the inhibition zone).
Description: as §4
(In agar diffusion tests the substance spreads into inoculated agar from a disc or well.)

Data set [6] concerns Pseudomonas aeruginosa ATCC 27853. Description: Disk diffusion method, P. aeruginosa. In kind it is cell-based. The arrangement: key to Halo Zone Test, class symbol: R = resistant. The following applies: 24 h, 37 °C.
Description: as §4

For data set [7], the system named is Bacillus cerreus ATCC 14579. Description: Disk diffusion method, B. cerreus. The following applies: Bacillus, ATCC14579; complexes 5 µL of 1 mg/mL; 25 µg Amoxicillin, 5 µg Norfloxacin; 24 h, 37 °C; read-out: Halo Zone Test (diameter of the inhibition zone). In kind it is cell-based.
Description: as §4

Data set [8] is described as follows: SOD mimetic activity, xanthine/xanthine oxidase system, NBT reduction. The settings on record: pH 7.8, read-out: SOD-like activity IC50 (50% inhibition of NBT reduction). In kind it is biochemical. As to the method: The SOD-like activities of complexes C1 and C2 were determined by an indirect method using the xanthine/xanthine oxidase system as the source of superoxide radicals. […] The IC50 value for native Cu2Zn2SOD is 0.006 μΜ. Thus, the IC50 values for both complexes are higher than the IC50 value for native Cu2Zn2SOD but are similar to those of complexes with related sulfonamide ligands presented in the literature.
The in vitro SOD mimetic activities of the complexes were assayed using the Oberley and Spitz method with some minor modifications. To generate a reproductible and constant flux of superoxide anions, xanthine (1.5 × 10^−4 M) and xanthine oxidase in 50 mM potassium phosphate buffer, pH = 7.8, were used. The superoxide anions were detected by the reduction of nitro blue tetrazolium (NBT) (5.6 × 10^−5 M) to blue formazane, which was determined spectrophotometrically at 560 nm. Different concentrations of the complexes (50, 25, 12.5, 2, and 0.2 μM) were prepared in 50 mM Tris-HCl buffer, pH = 7.8. For each determination, 0.1 mL complex solution + 0.1 mL xanthine oxidase were added to 0.8 mL of solution containing 0.69 mL potassium phosphate buffer (pH = 7.8), 0.025 mL NBT, and […]. The inhibition percentage of NBT reduction was used to determine the SOD activities of the complexes. The conversion of xanthine to uric acid was measured at 310 nm. The % inhibition of enzyme activity was subtracted from that of NBT. The IC50 values (the concentration of complex needed to yield 50% inhibition of NBT reduction) were determined from plots of % inhibition versus complex concentration. A Specord 200 Plus Spectrophotometer was used to perform the determinations and all reagents were purchased from Sigma-Aldrich.

On to `N.N.[Cl][Pt][Cl]` [Cisplatin, cisplatin, reference compound], for which the IC50 in data set [1] (24 h) came out at 21.03 ± 0.14 µM; in data set [1] (48 h) it was 6.02 ± 0.19 µM; in data set [1] (72 h), 2.39 ± 0.04 µM; in [2] (24 h) it was 13.2 ± 0.89 µM; in data set [2] (48 h) it was 3.99 ± 0.22 µM; in data set [2] (72 h), 1.18 ± 0.13 µM. Moreover, the results for the IC50 in [3] (24 h), in [3] (48 h) and in [3] (72 h) were 26.1 ± 0.43 µM, 11.15 ± 0.09 µM and 5.98 ± 0.03 µM, respectively.
As to `Cc1ccc(-c2nnc(NS(=O)(=O)c3cccc4ccccc34)s2)cc1` [HL1, N-(5-(4-methylphenyl)-[1,3,4]–thiadiazole–2-yl)-naphtalenesulfonamide], the “cytotoxicity of the free ligands” value in the data set with HeLa, WM35, HFL1 cells is “no significant cytotoxicity”.
For `CCn1cc(C(=O)O)c(=O)c2cc(F)c(N3CCNCC3)cc21` [Norfloxacin, reference compound], the zone of inhibition at 1000 µg/mL in [4] was determined as 20 ± 0.11 mm; in data set [5] it was 16 ± 0.21 mm; in data set [6] (Pseudomonas aeruginosa, ATCC27853, complexes 5 µL of 1 mg/mL, 5 µg Norfloxacin, read-out: Halo Zone Test (diameter of the inhibition zone)), 25 ± 0.24 mm; in data set [7], 18 ± 0.19 mm.
Consider “Cu2Zn2SOD: native Cu2Zn2 superoxide dismutase enzyme, comparison for SOD-like activity”, for which the IC50 in data set [8] was 0.006 µM.
Consider `CC1(C)S[C@@H]2[C@H](NC(=O)[C@H](N)c3ccc(O)cc3)C(=O)N2[C@H]1C(=O)O` [Amoxicillin, reference compound], for which the figures for the zone of inhibition at 1000 µg/mL in data set [4], in data set [5] and in [7] were 18 ± 0.09 mm, 19 ± 0.14 mm and 13 ± 0.22 mm, respectively. In addition, the “Halo Zone Test, class symbol” value in data set [6] (25 µg Amoxicillin) is reported as “R”.
As to `CCc1nnc(NS(=O)(=O)c2cccc3ccccc23)s1` [HL2, N-(5-ethyl-[1,3,4]–thiadiazole–2-yl)-naphtalenesulfonamide], the “cytotoxicity of the free ligands” value in the data set with HeLa, WM35, HFL1 cells was “no significant cytotoxicity”.
